Test results: patent US9399647B2, “Proteasome activity modulating compounds” (Proteostasis Therapeutics, Inc., priority 2012, dated 2016)
pIC50: −log10 of the molar value.

The compounds below were run against USP14 (Homo sapiens, UniProt P54578) (assay: USP14 inhibition assay). Settings: not given.
Format: biochemical
Source text: The IC50 values in the Table below represent the average value from three experimental determinations.
These IC50 values represent the average value from three experimental determinations.

USP14, sequence (P54578 whole entry): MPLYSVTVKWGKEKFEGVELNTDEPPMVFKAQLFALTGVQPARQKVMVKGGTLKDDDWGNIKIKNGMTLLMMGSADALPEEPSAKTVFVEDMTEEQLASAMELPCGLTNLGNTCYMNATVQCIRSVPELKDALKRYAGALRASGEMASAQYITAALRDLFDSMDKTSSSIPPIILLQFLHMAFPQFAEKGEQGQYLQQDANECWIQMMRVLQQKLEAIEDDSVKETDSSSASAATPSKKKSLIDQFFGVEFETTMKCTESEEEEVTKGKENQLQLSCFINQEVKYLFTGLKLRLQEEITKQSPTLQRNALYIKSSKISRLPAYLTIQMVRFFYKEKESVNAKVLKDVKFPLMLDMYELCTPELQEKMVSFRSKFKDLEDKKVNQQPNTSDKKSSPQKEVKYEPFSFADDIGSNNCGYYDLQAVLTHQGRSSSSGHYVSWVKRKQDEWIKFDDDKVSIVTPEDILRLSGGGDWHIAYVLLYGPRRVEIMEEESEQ
USP14, sequence (Q13200 whole entry partner): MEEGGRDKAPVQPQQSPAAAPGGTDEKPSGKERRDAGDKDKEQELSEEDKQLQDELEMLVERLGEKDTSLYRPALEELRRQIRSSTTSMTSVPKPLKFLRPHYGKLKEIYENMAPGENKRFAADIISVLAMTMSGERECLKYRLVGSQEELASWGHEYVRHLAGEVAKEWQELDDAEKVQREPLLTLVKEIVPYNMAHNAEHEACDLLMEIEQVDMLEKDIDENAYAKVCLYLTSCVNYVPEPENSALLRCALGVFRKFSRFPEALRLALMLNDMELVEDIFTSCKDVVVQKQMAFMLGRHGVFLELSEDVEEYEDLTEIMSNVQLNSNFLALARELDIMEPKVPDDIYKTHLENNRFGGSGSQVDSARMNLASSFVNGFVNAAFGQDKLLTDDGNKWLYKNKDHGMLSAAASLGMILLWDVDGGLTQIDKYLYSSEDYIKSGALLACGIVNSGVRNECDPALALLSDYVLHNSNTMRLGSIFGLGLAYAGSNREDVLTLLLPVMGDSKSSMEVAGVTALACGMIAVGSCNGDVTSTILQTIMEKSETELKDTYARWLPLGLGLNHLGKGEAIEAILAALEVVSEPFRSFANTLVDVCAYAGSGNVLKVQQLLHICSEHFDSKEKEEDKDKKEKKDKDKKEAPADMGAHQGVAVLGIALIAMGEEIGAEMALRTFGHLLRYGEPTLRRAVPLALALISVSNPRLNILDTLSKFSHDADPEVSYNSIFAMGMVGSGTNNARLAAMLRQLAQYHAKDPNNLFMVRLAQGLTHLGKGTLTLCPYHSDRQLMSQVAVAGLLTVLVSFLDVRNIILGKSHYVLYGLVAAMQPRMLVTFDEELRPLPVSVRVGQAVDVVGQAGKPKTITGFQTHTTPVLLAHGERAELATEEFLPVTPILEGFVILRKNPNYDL
USP14, sequence (P35998 whole entry partner): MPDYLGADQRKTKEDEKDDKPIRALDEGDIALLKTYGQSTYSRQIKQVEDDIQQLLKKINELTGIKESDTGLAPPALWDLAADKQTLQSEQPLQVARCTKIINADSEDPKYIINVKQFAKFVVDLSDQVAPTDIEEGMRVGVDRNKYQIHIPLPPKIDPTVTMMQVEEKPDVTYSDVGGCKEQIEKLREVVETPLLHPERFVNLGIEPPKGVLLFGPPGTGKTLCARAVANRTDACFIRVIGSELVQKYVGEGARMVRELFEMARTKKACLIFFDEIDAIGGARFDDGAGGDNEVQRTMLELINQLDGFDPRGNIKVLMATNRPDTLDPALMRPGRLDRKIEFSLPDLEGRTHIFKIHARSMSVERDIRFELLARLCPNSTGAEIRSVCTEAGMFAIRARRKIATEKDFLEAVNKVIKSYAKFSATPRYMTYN

Structure (SMILES) | pIC50
CN(c1nc(CC(=O)N2CCC(=O)CC2)nc2sc3c(c12)CCCC3)C1CC1 [Compound 14, 1-{2-[4-(Cyclopropyl-methyl-amino)-5,6,7,8-tetrahydro-benzo[4,5]thieno[2,3-d]pyrimidin-2-yl]-acetyl}-piperidin-4-one] | > 6.00

Same assay, conditions: average value from three experimental determinations; read-out: USP14 IC50

Structure (SMILES) | pIC50
CN(c1nc(CC(=O)O)nc2sc3c(c12)CCCC3)C1CC1 [Compound 2, 2-(4-(Cyclopropyl(methyl)amino)-5,6,7,8-tetrahydrobenzo[4,5]thieno[2,3-d]pyrimidin-2-yl)acetic acid] | 5.80
CNC(=O)Cc1nc(N(C)C2CC2)c2c3c(sc2n1)CCCC3 [Compound 1, 2-(4-(Cyclopropyl(methyl)amino)-5,6,7,8-tetrahydrobenzo[4,5]thieno[2,3-d]pyrimidin-2-yl)-N-methylacetamide] | 5.96
COCc1nc(N(C)C2CC2)c2c3c(sc2n1)CCCC3 [Compound 4, Cyclopropyl-(2-methoxymethyl-5,6,7,8-tetrahydro-benzo[4,5]thieno[2,3-d]pyrimidin-4-yl)-methyl-amine] | 5.12

Same assay, conditions: average value from three experimental determinations; reported as potency bands; read-out: IC50 (USP14 inhibition)

Structure (SMILES) | pIC50
CN(c1nc(CC(=O)N2CC[C@H](C(C)(C)O)C2)nc2sc3c(c12)CCCC3)C1CC1 [Compound 20, (S)-2-(4-(Cyclopropyl(methyl)amino)-5,6,7,8-tetrahydrobenzo[4,5]thieno[2,3-d]pyrimidin-2-yl)-1-(3-(2-hydroxypropan-2-yl)pyrrolidin-1-yl)ethanone] | > 6.00
CN(c1nc(CC(=O)N2CC[C@H](N(C)C)C2)nc2sc3c(c12)CCCC3)C1CC1 [Compound 24, 2-[4-(Cyclopropyl-methyl-amino)-5,6,7,8-tetrahydrobenzo[4,5]thieno[2,3-d]pyrimidin-2yl]-1-((S)-3-dimethylamino-pyrrolidin-1-yl)-ethanone] | > 6.00
CN(c1nc(COc2cccnc2)nc2sc3c(c12)CCCC3)C1CC1 [Compound 50, Cyclopropyl-methyl-[2-(pyridine-3-yloxymethyl)-5,6,7,8-tetrahydro-benzo[4,5]thieno[2,3-d]pyrimidin-4-yl]-amine] | < 5.30
CN(c1nc(CC(=O)NCc2cccnc2)nc2sc3c(c12)CCCC3)C1CC1 [Compound 19] | 5.30 to 6.00
CN(c1nc(CC(=O)N2CCCC2CO)nc2sc3c(c12)CCCC3)C1CC1 (stereo not drawn) [Compound 39, 2-[4-(Cyclopropyl-methyl-amino)-5,6,7,8-tetrahydro-benzo[4,5]thieno[2,3-d]pyrimidin-2-yl]-1-(2-hydroxymethyl-pyrrolidin-1-yl)-ethanone] | > 6.00
CN(C)C1CCN(C(=O)Cc2nc(N(C)C3CC3)c3c4c(sc3n2)CCCC4)C1 (stereo not drawn) [Compound 8, 2-[4-(Cyclopropyl-methyl-amino)-5,6,7,8-tetrahydro-benzo[4,5]thieno[2,3-d]pyrimidin-2-yl]-1-(3-dimethylamino-pyrrolidin-1-yl)-ethanone] | > 6.00
CN(c1nc(CC(=O)NCCC(C)(C)O)nc2sc3c(c12)CCCC3)C1CC1 [Compound 35, 2-[4-(Cyclopropyl-methyl-amino)-5,6,7,8-tetrahydro-benzo[4,5]thieno[2,3-d]pyrimidin-2-yl]-N-(3-hydroxy-3-methyl-butyl)-acetamide] | 5.30 to 6.00
CN(c1nc(CC(=O)N2CCOCC2)nc2sc3c(c12)CCCC3)C1CC1 [Compound 9, 2-[4-(Cyclopropyl-methyl-amino)-5,6,7,8-tetrahydro-benzo[4,5]thieno[2,3-d]pyrimidin-2-yl]-1-morpholin-4-yl-ethanone] | > 6.00
CN(c1nc(CC(=O)N2CC[C@@H](N(C)C)C2)nc2sc3c(c12)CCCC3)C1CC1 [Compound 30, 2-[4-(Cyclopropyl-methyl-amino)-5,6,7,8-tetrahydro-benzo[4,5]thieno[2,3-d]pyrimidin-2-yl]-1-((R)-3-dimethylamino-pyrrolidin-1-yl)-ethanone] | > 6.00
CN(c1nc(CC(=O)NCc2ccncc2)nc2sc3c(c12)CCCC3)C1CC1 [Compound 16] | 5.30 to 6.00
CN(c1nc(CC(=O)NCCc2ccccn2)nc2sc3c(c12)CCCC3)C1CC1 [Compound 17] | 5.30 to 6.00
CN(c1nc(CC(=O)N2CCCC(O)C2)nc2sc3c(c12)CCCC3)C1CC1 (stereo not drawn) [Compound 33, 2-[4-(Cyclopropyl-methyl-amino)-5,6,7,8-tetrahydro-benzo[4,5]thieno[2,3-d]pyrimidin-2-yl]-1-(3-hydroxy-piperidin-1-yl)-ethanone] | > 6.00
CN(c1nc(CC(=O)N2CCC(CO)C2)nc2sc3c(c12)CCCC3)C1CC1 (stereo not drawn) [Compound 36, 2-[4-(Cyclopropyl-methyl-amino)-5,6,7,8-tetrahydro-benzo[4,5]thieno[2,3-d]pyrimidin-2-yl]-1-(3-hydroxymethyl-pyrrolidin-1-yl)-ethanone] | > 6.00
CN(c1nc(CC(=O)N2CCCCC2)nc2sc3c(c12)CCCC3)C1CC1 [Compound 26, 2-[4-(Cyclopropyl-methyl-amino)-5,6,7,8-tetrahydro-benzo[4,5]thieno[2,3-d]pyrimidin-2yl]-1-piperidin-1-yl-ethanone] | 5.30 to 6.00
CCN(C)c1nc(CC(=O)O)nc2sc3c(c12)CCCC3 [Compound 45, [4-(Ethyl-methyl-amino)-5,6,7,8-tetrahydro-benzo[4,5]thieno[2,3-d]pyrimidin-2-yl]-acetic acid] | < 5.30
CN(c1nc(CC(=O)C(F)(F)F)nc2sc3c(c12)CCCC3)C1CC1 [Compound 51, 3-[4-(Cyclopropyl-methyl-amino)-5,6,7,8-tetrahydrobenzo[4,5]thieno[2,3-d]pyrimidin-2-yl]-1,1,1-trifluoro-propan-2-one] | 5.30 to 6.00
CN(c1nc(CC(=O)N2CCC(C(N)=O)CC2)nc2sc3c(c12)CCCC3)C1CC1 [Compound 31, 1-{2-[4-(Cyclopropyl-methyl-amino)-5,6,7,8-tetrahydro-benzo[4,5]thieno[2,3-d]pyrimidin-2-yl]-acetyl}-piperidine-4-carboxylic acid amide] | > 6.00
CCOC(=O)Cc1nc(N(C)CC)c2c3c(sc2n1)CCCC3 [Compound 40, [4-(Ethyl-methyl-amino)-5,6,7,8-tetrahydro-benzo[4,5]thieno[2,3-d]pyrimidin-2-yl]-acetic acid ethyl ester] | < 5.30
CN(c1nc(CC(=O)N2CCC(F)(F)C2)nc2sc3c(c12)CCCC3)C1CC1 [Compound 7, 2-[4-(Cyclopropyl-methyl-amino)-5,6,7,8-tetrahydro-benzo[4,5]thieno[2,3-d]pyrimidin-2-yl]-1-(3,3-difluoro-pyrrolidin-1-yl)-ethanone] | 5.30 to 6.00
CN(c1nc(CC(=O)N2CCC(F)(F)CC2)nc2sc3c(c12)CCCC3)C1CC1 [Compound 11, 2-[4-(Cyclopropyl-methyl-amino)-5,6,7,8-tetrahydro-benzo[4,5]thieno[2,3-d]pyrimidin-2-yl]-1-(4,4-difluoro-piperidin-1-yl)-ethanone] | 5.30 to 6.00
CN(c1nc(CC(=O)Nc2ccon2)nc2sc3c(c12)CCCC3)C1CC1 [Compound 21] | 5.30 to 6.00
CN(c1nc(CC(=O)NCCc2cccnc2)nc2sc3c(c12)CCCC3)C1CC1 [Compound 23] | 5.30 to 6.00
CN(C)C(=O)Cc1nc(N2CCC2)c2c3c(sc2n1)CCCC3 [Compound 44, 2-(4-(Azetidin-1-yl)-5,6,7,8-tetrahydrobenzo[4,5]thieno[2,3-d]pyrimidin-2-yl)-N,N-dimethylacetamide] | < 5.30
